# Target: T1, Human complement C1s enzyme (Homo sapiens, UniProt P09871)
# T1 construct: purified from human serum, Complement Technology, Inc; purchased Complement Technology, Inc; host or cells: human serum (plasma-derived native protein)
# T1 sequence (P09871 438-688 limits assumed): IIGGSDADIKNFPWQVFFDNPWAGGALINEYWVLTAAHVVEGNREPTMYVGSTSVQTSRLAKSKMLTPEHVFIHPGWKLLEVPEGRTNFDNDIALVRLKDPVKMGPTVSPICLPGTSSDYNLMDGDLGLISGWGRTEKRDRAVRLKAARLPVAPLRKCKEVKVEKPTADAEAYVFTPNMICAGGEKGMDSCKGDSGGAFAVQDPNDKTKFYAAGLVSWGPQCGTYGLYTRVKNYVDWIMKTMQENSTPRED
# T1 sequence (P09871 16-437 partner limits assumed): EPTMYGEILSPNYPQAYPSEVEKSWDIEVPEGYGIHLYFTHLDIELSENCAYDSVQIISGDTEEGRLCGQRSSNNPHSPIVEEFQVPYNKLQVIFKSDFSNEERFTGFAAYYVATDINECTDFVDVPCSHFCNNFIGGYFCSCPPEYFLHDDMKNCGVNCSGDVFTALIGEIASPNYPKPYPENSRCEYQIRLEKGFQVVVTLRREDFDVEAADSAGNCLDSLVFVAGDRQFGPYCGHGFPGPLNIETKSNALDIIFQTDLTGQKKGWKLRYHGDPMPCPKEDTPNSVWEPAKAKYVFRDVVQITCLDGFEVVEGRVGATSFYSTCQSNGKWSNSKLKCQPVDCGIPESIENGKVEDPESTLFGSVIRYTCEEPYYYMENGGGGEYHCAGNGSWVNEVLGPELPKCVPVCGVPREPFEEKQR
# Assay: Human C1s enzyme assay
# Format: biochemical
# Settings: human complement C1s enzyme 1.16 nM, substrate Z-L-Lys-SBzl, A405; read-out: IC50 (Stars)
# Summary of the method: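 Thioesterase activity followed colorimetrically (DTNB, A405, 30-s reads) using 100 μM Z-L-Lys-SBzl substrate. Enzyme, human serum-derived C1s at 1.16 nM final, was incubated with test compound for 5 min, room temperature, pH 7.5 Tris buffer with 1 M NaCl. Rate-versus-concentration data fitted by nonlinear regression for IC50.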
row,SMILES,IC50 [nM]
1,"C[C@@H](Nc1cnc(-c2ccc(O[C@@H]3CO[C@H]4[C@@H]3OC[C@H]4O)cc2)n(CC(=O)NCc2cc3cnccc3[nH]2)c1=O)c1ccc2oc3ccccc3c2c1 [Compound 377, N-((1H-pyrrolo[3,2-c]pyridine-2-yl)methyl)-2-(5-(((R)-1-(dibenzo[b,d]furan-2-yl)ethyl)amino)-2-(4-(((3R,3aR,6R,6aR)-6-hydroxyhexahydrofuro[3,2-b]furan-3-yl)oxy)phenyl)-6-oxopyrimidin-1(6H)-yl)acetamide]",< 100
2,"Cc1ncc(N[C@H](C)c2ccc3oc4ccccc4c3c2)c(=O)n1CC(=O)NCc1cc2cnccc2[nH]1 [Compound 378, (R)-N-((1H-pyrrolo[3,2-c]pyridin-2-yl)methyl)-2-(5-((1-(dibenzo[b,d]furan-2-yl)ethyl)-amino)-2-methyl-6-oxopyrimi-din-1(6H)-yl)acetamide]",> 1000
3,"C[C@@H](Nc1cnc(N2CCC(F)(F)CC2)n(CC(=O)NCc2cc3cnccc3[nH]2)c1=O)c1ccc2oc3ccccc3c2c1 [Compound 379, (R)-N-((1H-pyrrolo[3,2-c]pyridin-2-yl)methyl)-2-(5-((1-(dibenzo[b,d]furan-2-yl)ethyl)-amino)-2-(4,4-difluoropiperi-din-1-yl)-6-oxopyrimidin-1(6H)-yl)acetamide]",> 1000
4,"C[C@@H](Nc1cnc(N2CCC(O)CC2)n(CC(=O)NCc2cc3cnccc3[nH]2)c1=O)c1ccc2oc3ccccc3c2c1 [Compound 380, (R)-N-((1H-pyrrolo[3,2-c]pyridin-2-yl)methyl)-2-(5-((1-(dibenzo[b,d]furan-2-yl)ethyl)-amino)-2-(4-hydroxypiperidin-1-yl)-6-oxopyrimidin-1(6H)-yl)acetamide]",100 to 1000
5,"CC1CCCN(c2ncc(N[C@H](C)c3ccc4oc5ccccc5c4c3)c(=O)n2CC(=O)NCc2cc3cnccc3[nH]2)C1 (stereo partly drawn) [Compound 381, N-((1H-pyrrolo[3,2-c]pyridin-2-yl)methyl)-2-(5-(((R)-1-(dibenzo[b,d]furan-2-yl)ethyl)-amino)-2-(3-methylpiperidin-1-yl)-6-oxopyrimidin-1(6H)-yl)acetamide]",> 1000
6,"C[C@@H](Nc1cnc(N2CCC3(CC2)OCCO3)n(CC(=O)NCc2cc3cnccc3[nH]2)c1=O)c1ccc2oc3ccccc3c2c1 [Compound 382, (R)-N-((1H-pyrrolo[3,2-c]pyridin-2-yl)methyl)-2-(5-((1-(dibenzo[b,d]furan-2-yl)ethyl)-amino)-6-oxo-2-(1,4-dioxa-8-azaspiro[4.5]decan-8-yl)pyr-imidin-1(6H)-yl)acetamide]",< 100
7,"C[C@@H](Nc1cnc(N2CC3CCC2C3)n(CC(=O)NCc2cc3cnccc3[nH]2)c1=O)c1ccc2oc3ccccc3c2c1 (stereo partly drawn) [Compound 383, N-((1H-pyrrolo[3,2-c]pyridine-2-yl)methyl)-2-(2-(2-azabicyclo[2.2.1]heptan-2-yl)-5-(((R)-1-(dibenzo[b,d]furan-2-yl)ethyl)amino)-6-oxopyrimidin-1(6H)-yl)acetamide]",> 1000
8,"C[C@@H](Nc1cnc(N2CCSCC2)n(CC(=O)NCc2cc3cnccc3[nH]2)c1=O)c1ccc2oc3ccccc3c2c1 [Compound 384, (R)-N-((1H-pyrrolo[3,2-c]pyridin-2-yl)methyl)-2-(5-((1-(dibenzo[b,d]furan-2-yl)ethyl)-amino)-6-oxo-2-thiomorpho-linopyrimidin-1(6H)-yl)acet-amide]",100 to 1000
9,"C[C@@H](Nc1cnc(N2CCS(=O)(=O)CC2)n(CC(=O)NCc2cc3cnccc3[nH]2)c1=O)c1ccc2oc3ccccc3c2c1 [Compound 385, (R)-N-((1H-pyrrolo[3,2-c]pyridin-2-yl)methyl)-2-(5-((1-(dibenzo[b,d]furan-2-yl)ethyl)-amino)-2-(1,1-dioxidothio-morpholino)-6-oxopyrimidin-1(6H)-yl)acetamide]",> 1000
10,"C[C@@H](Nc1cnc(N2CC(O)C2)n(CC(=O)NCc2cc3cnccc3[nH]2)c1=O)c1ccc2oc3ccccc3c2c1 [Compound 386, (R)-N-((1H-pyrrolo[3,2-c]pyridin-2-yl)methyl)-2-(5-((1-(dibenzo[b,d]furan-2-yl)ethyl)-amino)-2-(3-hydroxyazetidin-1-yl)-6-oxopyrimidin-1(6H)-yl)acetamide]",> 1000
11,"C[C@@H](Nc1cnc(N2C[C@H]3C[C@@H](C2)C3)n(CC(=O)NCc2cc3cnccc3[nH]2)c1=O)c1ccc2oc3ccccc3c2c1 [Compound 387, N-((1H-pyrrolo[3,2-c]pyridin-2-yl)methyl)-2-(2-((1S,5S)-3-azabicyclo[3.1.1]heptan-3-yl)-5-(((R)-1-(dibenzo[b,d]furan-2-yl)ethyl)amino)-6-oxopyr-imidin-1(6H)-yl)acetamide]",100 to 1000
12,"C[C@@H](Nc1cnc(N2CCCCCC2)n(CC(=O)NCc2cc3cnccc3[nH]2)c1=O)c1ccc2oc3ccccc3c2c1 [Compound 388, (R)-N-((1H-pyrrolo[3,2-c]pyridin-2-yl)methyl)-2-(2-(azepan-1-yl)-5-((1-(dibenzo [b,d]furan-2-yl)ethyl)amino)-6-oxopyrimidin-1(6H)-yl)-acetamide]",100 to 1000
13,"C[C@@H](Nc1cnc(N2CCN(C)CC2)n(CC(=O)NCc2cc3cnccc3[nH]2)c1=O)c1ccc2oc3ccccc3c2c1 [Compound 389, (R)-N-((1H-pyrrolo[3,2-c]pyridin-2-yl)methyl)-2-(5-((1-(dibenzo[b,d]furan-2-yl)ethyl)-amino)-2-(4-methylpiperazin-1-yl)-6-oxopyrimidin-1(6H)-yl)acetamide]",< 100
14,"C[C@@H](Nc1nnc(-c2ccccc2F)n(CC(=O)NCc2cc3cnccc3[nH]2)c1=O)c1ccc2oc3ccccc3c2c1 [Compound 390, (R)—N-((1H-pyrrolo[3,2-c]pyridine-2-yl)methyl)-2-(6-((1-(dibenzo[b,d]furan-2-yl)ethyl)amino)-3-(2-fluorophenyl)-5-oxo-1,2,4-triazin-4(5H)-yl)acetamide]",< 100
15,"Cc1ncc(-c2ncc(N[C@H](C)c3ccc4oc5ccccc5c4c3)c(=O)n2CC(=O)NCc2cc3cnccc3[nH]2)cn1 [Compound 391, (R)-N-((1H-pyrrolo[3,2-c]pyridin-2-yl)methyl)-2-(5-((1-(dibenzo[b,d]furan-2-yl)ethyl)-amino)-2′-methyl-6-oxo-[2,5′-bipyrimidin]-1(6H)-yl)acet-amide]",100 to 1000
16,"O=C(Cn1cncc(NC(=O)c2coc(-c3ccccc3)n2)c1=O)NCc1cc2cnccc2[nH]1 [Compound 392, N-(1-(2-(((1H-pyrrolo[3,2-c]pyridin-2-yl)methyl)amino)-2-oxoethyl)-6-oxo-1,6-dihydro-pyrimidin-5-yl)-2-phenyl-oxazole-4-carboxamide]",< 100
17,"O=C(Cn1cncc(NC(=O)c2csc(-c3ccccc3)n2)c1=O)NCc1cc2cnccc2[nH]1 [Compound 393, N-(1-(2-(((1H-pyrrolo[3,2-c]pyridin-2-yl)methyl)amino)-2-oxoethyl)-6-oxo-1,6-dihydro-pyrimidin-5-yl)-2-phenyl-thiazole-4-carboxamide]",100 to 1000
18,"O=C(Cn1c(-c2ccccc2F)ncc(N[C@H]2CCc3ccccc32)c1=O)NCc1cc2cnccc2[nH]1 [Compound 394, (S)—N-((1H-pyrrolo[3,2-c]pyridine-2-yl)methyl)-2-(5-((2,3-dihydro-1H-inden-1-yl)amino)-2-(2-fluorophenyl)-6-oxopyrimidin-1(6H)-yl)acetamide]",< 100
19,"O=C(Cn1c(-c2ccccc2)ncc(NS(=O)(=O)c2ccccc2)c1=O)NCc1cc2cnccc2[nH]1 [Compound 395, N-((1H-pyrrolo[3,2-c]pyridin-2-yl)methyl)-2-(6-oxo-2-phen-yl-5-(phenylsulfonamido)-pyrimidin-1(6H)-yl)acetamide]",> 1000
20,"C[C@@H](Nc1cnc(-c2ccccc2F)n(CC(=O)NCc2cc3cnccc3[nH]2)c1=O)c1cc2c(cc1F)oc1ccccc12 [Compound 396, (R)-N-((1H-pyrrolo[3,2-c]pyridin-2-yl)methyl)-2-(5-((1-(3-fluorodibenzo[b,d]furan-2-yl)ethyl)amino)-2-(2-fluoro-phenyl)-6-oxopyrimidin-1(6H)-yl)acetamide]",< 100
21,"C[C@@H](Nc1cnc(-n2cccc2)n(CC(=O)NCc2cc3cnccc3[nH]2)c1=O)c1ccc2oc3ccccc3c2c1 [Compound 397, (R)-N-((1H-pyrrolo[3,2-c]pyridin-2-yl)methyl)-2-(5-((1-(dibenzo[b,d]furan-2-yl)ethyl)-amino)-6-oxo-2-(1H-pyrrol-1-yl)pyrimidin-1(6H)-yl)acet-amide]",< 100
22,"C[C@@H](Nc1cnc(N2CCCC(F)C2)n(CC(=O)NCc2cc3cnccc3[nH]2)c1=O)c1ccc2oc3ccccc3c2c1 (stereo partly drawn) [Compound 398, N-((1H-pyrrolo[3,2-c]pyridin-2-yl)methyl)-2-(5-(((R)-1-(dibenzo[b,d]furan-2-yl)ethyl)-amino)-2-(3-fluoropiperidin-1-yl)-6-oxopyrimidin-1(6H)-yl)-acetamide]",< 100

# Source: US20260184707A1, “PHARMACEUTICAL COMPOUNDS FOR THE TREATMENT OF COMPLEMENT MEDIATED DISORDERS” (ALEXION PHARMACEUTICALS, INC., priority 2022, published 2026)
